Experimental data: the supplement of paper PMC5908809

Legend:
Assay in all cases: relative IC50 (inflection point of fitted viability curve, relative to fitted max inhibition); higher = less sensitive
Settings in all cases: 72 h
[1] = test system: NKL (IL-2 2.5 ng/mL)
Protocol: (§1)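 Drug sensitivity and resistance testing: 5 concentrations over a 10,000-fold range, 72 h at 37 °C, viability by CellTiter-Glo normalised to DMSO and benzethonium chloride controls. IC50 is the inflection point of a logistic fit (min fixed at 0, max fitted), so it is relative to the fitted maximal inhibition. Kept only where fitted max inhibition is at least 50%.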

[2] = test system: KHYG-1 (IL-2 2.5 ng/mL)
Protocol: as §1

[3] = test system: YT (IL-2 2.5 ng/mL)
Protocol: as §1

[4] = test system: NK-92 (IL-2 2.5 ng/mL)
Protocol: as §1

[5] = test system: SNK-6 (IL-2 2.5 ng/mL)
Protocol: as §1

[6] = test system: NK-YS (IL-2 2.5 ng/mL)
Protocol: as §1

[7] = test system: DERL-7 (IL-2 2.5 ng/mL)
Protocol: as §1

[8] = test system: KAI3 (IL-2 2.5 ng/mL)
Protocol: as §1

[9] = test system: IMC-1 (IL-2 20 ng/mL)
Protocol: as §1

[10] = test system: normal primary NK cells, pool 2 (3 donors) (IL-2 2.5 ng/mL)
Protocol: as §1

[11] = test system: normal primary NK cells, pool 3 (3 donors) (IL-2 2.5 ng/mL)
Protocol: as §1

[12] = test system: normal primary NK cells, pool 1 (3 donors) (IL-2 2.5 ng/mL)
Protocol: as §1

[13] = test system: normal primary NK cells, pool 1 (3 donors), resting (IL-2 0 ng/mL)
Protocol: as §1

Row | Compound | relative IC50 [1] [nM] | relative IC50 [2] [nM] | relative IC50 [3] [nM] | relative IC50 [4] [nM] | relative IC50 [5] [nM] | relative IC50 [6] [nM] | relative IC50 [7] [nM] | relative IC50 [8] [nM] | relative IC50 [9] [nM] | relative IC50 [10] [nM] | relative IC50 [11] [nM] | relative IC50 [12] [nM] | relative IC50 [13] [nM]
1 | O=c1[nH]cc(F)c(=O)[nH]1 [Fluorouracil] | 1230 | 2010 | 820 | 526 | 1190 | 1040 | 2490 |  |  |  |  |  | 
2 | CN(C)C1CCN(C(=O)c2ccc(NC(=O)Nc3ccc(-c4nc(N5CCOCC5)nc(N5CCOCC5)n4)cc3)cc2)CC1 [Gedatolisib] | 14.7 |  | 147 |  | 75.6 | 32.5 | 27.4 | 85.9 |  |  |  |  | 
3 | C=CC(=O)N1CCC[C@@H](n2nc(-c3ccc(Oc4ccccc4)cc3)c3c(N)ncnc32)C1 [Ibrutinib] |  |  |  |  |  |  |  |  | > 1000 |  |  |  | 
4 | COc1cc(C(=O)O)ccc1NC(=O)[C@@H]1N[C@@H](CC(C)(C)C)[C@](C#N)(c2ccc(Cl)cc2F)[C@H]1c1cccc(Cl)c1F [Idasanutlin] |  |  |  |  |  |  |  |  |  | 197 | 265 |  | 
5 | CC[C@H](Nc1ncnc2[nH]cnc12)c1nc2cccc(F)c2c(=O)n1-c1ccccc1 [Idelalisib] |  |  |  | 31.7 | 891 |  | 675 |  |  |  |  |  | 
6 | CCC(C)n1ncn(-c2ccc(N3CCN(c4ccc(OCC5COC(Cn6cncn6)(c6ccc(Cl)cc6Cl)O5)cc4)CC3)cc2)c1=O (stereo not given) [Itraconazole] | 1770 | 1300 |  | 572 | 503 | 1080 | 1160 | 1030 |  |  |  |  | 
7 | O=C(Cc1ccc(-c2ccc(OCCN3CCOCC3)cc2)cn1)NCc1ccccc1 [KX2-391] | 27.8 | 30.3 | 23 | 12.3 | 5.46 | 26.1 | 28.1 | 28.1 | 34.4 |  |  |  | 
8 | Oc1ccc2c(c1)CC[C@H](c1ccccc1)[C@@H]2c1ccc(OCCN2CCCC2)cc1 [Lasofoxifene] | > 1000 |  |  |  |  |  |  |  |  | > 1000 | > 1000 |  | 
9 | C[C@]1(O)C[C@@H](c2nc(-c3ccc4ccc(-c5ccccc5)nc4c3)c3c(N)nccn32)C1 [Linsitinib] |  |  |  |  |  |  |  |  | > 10000 |  |  |  | 
10 | Cn1cc(-c2cnn3c(N)c(Br)c([C@@H]4CCCNC4)nc23)cn1 [MK-8776] | 372 | 311 |  | 750 |  | 668 | 539 | 337 |  |  |  |  | 
11 | Clc1ccc(C(c2ccccc2Cl)C(Cl)Cl)cc1 (stereo not given) [Mitotane] | > 10000 | > 10000 | > 10000 | > 10000 |  | > 10000 |  | > 10000 | > 10000 | > 10000 |  |  | 
12 | CNC(=O)c1ccc(-c2cnc3ncc(Cc4ccc5ncccc5c4)n3n2)cc1F [NVP-INC280] |  |  |  |  |  |  |  |  |  |  | > 1000 | > 1000 | 
13 | COc1cccc2cc(-c3nc([C@H]4CC[C@H](C(=O)O)CC4)n4ncnc(N)c34)[nH]c12 [OSI-027] | 342 | 1500 | 1160 | 579 | 564 | 1820 | 1220 | 775 |  |  |  |  | 
14 | COC1=CC(c2cc3ccccc3[nH]2)=N/C1=C\c1[nH]c(C)cc1C [Obatoclax] | 247 |  |  | 449 |  |  |  |  |  |  |  |  | 1880
15 | CC(=O)O[C@H]1C(=O)[C@@]2(C)[C@H]([C@H](OC(=O)c3ccccc3)[C@]3(O)C[C@H](OC(=O)[C@H](O)[C@@H](NC(=O)c4ccccc4)c4ccccc4)C(C)=C1C3(C)C)[C@]1(OC(C)=O)CO[C@@H]1C[C@@H]2O [Paclitaxel] | 4.61 | 6.15 | 5.42 | 22 | 3.77 | 4.26 | 3.25 | 2.92 | 3.31 |  |  |  | 
16 | Nc1nc2[nH]cc(CCc3ccc(C(=O)N[C@@H](CCC(=O)O)C(=O)O)cc3)c2c(=O)[nH]1 [Pemetrexed] |  |  |  |  |  |  |  |  | 146 | > 10000 | > 10000 |  | 
17 | CC(C)(C)c1cc(NC(=O)Nc2ccc(-c3cn4c(n3)sc3cc(OCCN5CCOCC5)ccc34)cc2)no1 [Quizartinib] |  | 233 |  |  |  |  |  | 165 | > 1000 |  |  |  | 
18 | O=C(c1ccc(OCCN2CCCCC2)cc1)c1c(-c2ccc(O)cc2)sc2cc(O)ccc12 [Raloxifene] | 1680 | 1740 | 3070 | 3290 | 4500 |  | 1740 | 2770 |  |  |  |  | 
19 | CO[C@H]1C[C@@H]2CC[C@@H](C)[C@@](O)(O2)C(=O)C(=O)N2CCCC[C@H]2C(=O)O[C@H]([C@H](C)C[C@@H]2CC[C@@H](OP(C)(C)=O)[C@H](OC)C2)CC(=O)[C@H](C)/C=C(\C)[C@@H](O)[C@@H](OC)C(=O)[C@H](C)C[C@H](C)/C=C/C=C/C=C/1C [Ridaforolimus] | 0.18 | 9.75 |  |  | 0.53 | 0.4 | 1.04 |  | > 100 |  |  |  | 
20 | CC(C)(O)CC(=O)NCCn1ccc2ncnc(Nc3ccc(Oc4cccc(C(F)(F)F)c4)c(Cl)c3)c21 [TAK-285] | > 2500 |  |  |  |  |  |  |  | > 2500 | > 2500 | > 2500 |  | 
21 | COc1cc2nccc(Oc3ccc(NC(=O)Nc4cc(C)on4)c(Cl)c3)c2cc1OC [Tivozanib] |  | 1630 | 1490 | 319 | 799 | 1750 | 2780 |  |  |  |  |  | 1520
22 | CC(=O)Nc1cccc(-n2c(=O)n(C3CC3)c(=O)c3c(Nc4ccc(I)cc4F)n(C)c(=O)c(C)c32)c1 [Trametinib] | 2.51 | 4.89 |  | > 250 |  |  |  |  | > 250 |  | > 250 |  | 
23 | CS(=O)(=O)c1ccc(-c2cnc(N)c(C(=O)Nc3ccccc3)n2)cc1 [VE-821] |  | 1550 |  |  | 795 |  | 1540 | 332 | 2660 |  |  |  | 
24 | COc1cc2/c(=N/c3ccc(Br)cc3F)nc[nH]c2cc1OCC1CCN(C)CC1 [Vandetanib] |  |  |  |  |  |  |  |  |  |  | > 1000 |  | 
25 | CCCS(=O)(=O)Nc1ccc(F)c(C(=O)c2c[nH]c3ncc(-c4ccc(Cl)cc4)cc23)c1F [Vemurafenib] | 1900 | 1130 | 1910 | 1610 | 3170 | 3080 | 1760 | 1910 |  |  |  |  | 
26 | CS(=O)(=O)c1ccc(C(=O)Nc2ccc(Cl)c(-c3ccccn3)c2)c(Cl)c1 [Vismodegib] |  |  |  | 1400 |  |  |  |  |  |  |  |  | 
27 | CCn1c(=O)c(-c2cc[nH]n2)cc2c(C)nc(N)nc21 [Voxtalisib] | 880 | 1640 | 1110 | 685 | 3190 | 1340 | 457 | 818 |  |  |  |  | 
28 | FC(F)c1nc2ccccc2n1-c1nc(N2CCOCC2)nc(N2CCOCC2)n1 [ZSTK474] | 436 |  | 262 | 31.2 | 832 | 655 | 110 | 290 |  |  |  |  | 
